Assay results from patent US6696483B2, “Inhibitors of angiogenesis and tumor growth for local and systemic administration” (OncoPharmaceutical, Inc., priority 2000, dated 2004).

Assays:
[1] = tested on: rat aortic ring explant cultures; assay: Ex vivo rat aortic ring explant assay (microvessel outgrowth); type: cell-based, Sprague-Dawley rats; details: tested concentrations of 200 nM and above (200, 400, 1000 nM); Day 7; average of three trials
Description: The ex vivo influence of brefeldin A on angiogenesis was evaluated as follows. Male Sprague-Dawley rats weighing approximately 250 g were anesthetized and their thoracic aortas removed carefully to avoid damaging the vessel wall. Aortas were rinsed in serum-free endothelial cell basal medium, the surrounding adventitia removed and cleaned, and the vessels cut into two millimeter (mm) concentric rings. Each ring was embedded in freshly prepared rattail collagen. Following gelation for 30 minutes at 37° C., collagen gel cultures were transferred to 16 mm wells (4 well plate), each containing 0.5 ml of serum free (MCBD 131) medium. Brefeldin A was dissolved in DMSO and mixed with serum free medium at final concentrations of 40 nM 100 nM, 200 nM, 400 nM, and 1000 nM immediately prior to the addition of media to collagen-embedded rat aortic ring explant cultures. The final concentration of DMSO in treated and control cultures was 0.02%. Explant cultures were incubated at 35.5° C. in a 5% CO2 humidified atmosphere, and the media replaced every two days over the course of the 8-10 day study. Visual counts of microvessel outgrowths from replicate explant cultures were performed using bright field microscopy during microvessel peak growth (Day 7).
Data were expressed as percent inhibition of microvessel growth relative to vehicle-treated control cultures (FIG. 8). […]

[2] = tested on: Human umbilical vein endothelial cells (HUVECs); assay: In vitro capillary tube formation assay on Matrigel; type: cell-based; details: tested concentrations of 4.0 nM and above (4.0, 40, 100, 400 nM); 18 hours
Description: The in vitro influence of brefeldin A on angiogenesis was evaluated. Human umbilical vein endothelial cells (HUVECs) were cultured in medium EBM-2 complete™ (BioWhittaker, Inc., Baltimore, Md.). Matrigel® (200 μl, synthetic basement membrane substrate) was pipetted gently to avoid air bubbles on the surface of a 48-well plate. Following application of Matrigel® substrate, the plate was placed in an incubator at 37° C. for 30 minutes to promote gelling. HUVECs were harvested from tissue culture flasks, counted, and diluted to 15×10^4/ml. The cell suspension (200 μl) was added to the Matrigel® substrate, such that the final concentration was 30,000 cells/well. Two wells/concentration were used. For evaluation of antiangiogenic activity, a 0.4 mM BFA stock (in dimethyl sulfoxide, DMSO) was diluted to a final concentration of 400, 100, 40, 4.0, and 0.4 nM before adding cells. The final DMSO concentration was 0.02%. […] To evaluate capillary tube formation, plates were viewed under phase contrast low magnification (10×), a photo reticule was used to define the area, and the capillary tube network was counted within the designated area. Only complete tubes that were inside the rectangle were counted.
Data were expressed as percent of complete capillary tube formation relative to untreated control cultures incubated under the same conditions (control=100%). […]

RIF-1 tumors = assay: In vivo efficacy in mice carrying RIF-1 (radiation induced fibrosarcoma-1) tumors; design: species or system C3H mice; details: Example 3
Description: (§1) For Examples 1-3, the pharmaceutical formulations were prepared just prior to use. Various amounts of brefeldin A (BFA) (mg of drug/kg animal's body weight) were weighed out, and solvent (varying amounts of ethanol in saline) was then added. The mixtures were either vortexed (mechanical mixing) or sonicated until the drug was either completely dissolved or only a very small amount appeared to settle in the bottom the test tube.
(§2) In vivo efficacy was determined using either inbred C3H or hybrid B6D2F1 mice carrying RIF-1 (radiation induced firbrosarcoma-1) or LL/2 (Lewis lung carcinoma) tumors, respectively. The tumor cells were kept in a CO2/O2 atmosphere at 37° C., and grown in monolayers. When confluent, cells were rinsed with ice-cold phosphate buffered ethylenediamine tetraacetic acid (EDTA), followed by trypsin/EDTA treatment for about 3 minutes at 37° C. The cells were then dispersed by the addition of medium with serum and spun down using a centrifuge, then washed once in phosphate-buffered saline (PBS) prior to suspending at the desired density (cells/ml) in sterile Hank's balanced salt solution (HBSS). The cells were then inoculated subcutaneously (s.c.) with either a 100 μl or 50 μl injection on one flank of each mouse to provide the desired number of cells (1.25×10^5, 2.5×10^5 or 5.0×10^5) per site.
Five to ten days after inoculation with the tumor cells, treatment was initiated with either solvent alone for control groups, or solvent with BFA for the treated group. The mice were treated daily for one to two weeks either intraperitoneally (i.p.) or intravenously (i.v.). […] The body weight for each mouse was recorded daily until the end of treatment. […]
The efficacy of a lower dose of BFA (8 mg/kg), in a lower concentration of ethanol (1.0%) in phosphate-buffered saline, relative to Examples 1 and 2 was determined. […]
(§3) All mice were observed daily for signs of gross toxicity and the absence or presence of tumor growth. […] Efficacy was determined by tumor growth delay as evidenced by the size and appearance of the tumor in the treated group relative to control.

[3] = Gross toxicity in RIF-1 tumor-bearing mice; type: in vivo, C3H mice; details: Example 3; 8 mg/kg i.v. daily for eight days
Description: (§4) Five to ten days after inoculation with the tumor cells, treatment was initiated with either solvent alone for control groups, or solvent with BFA for the treated group. The mice were treated daily for one to two weeks either intraperitoneally (i.p.) or intravenously (i.v.). The mice (weighing approximately 25 g each) were observed daily for the absence or presence of a tumor, as well as for signs of gross toxicity such as weight loss, hair loss, lethargy, and/or dehydration. The body weight for each mouse was recorded daily until the end of treatment. At the termination of treatment, mice were euthanized, and their tumors removed and stored in formalin for sectioning and staining in future studies. In some experiments, organs such as the kidney, spleen, liver, and brain were also stored in formalin (10%) for future histological analysis of organ toxicity.
On Day 0, C3H mice were inoculated on one flank (s.c.) with 2.5×10^5 RIF-1 tumor cells in 50 μl liquid carrier. Ten days following tumor cell inoculation, mice were randomized into control and treated groups. […]
as §3

[4] = Gross toxicity and organ histology in LL/2 tumor-bearing mice; type: in vivo, B6D2F1 mice
Description: as §4
The toxicity and efficacy of brefeldin A (BFA, 11 mg/kg) in 10% ethanol (in saline) were determined in B6D2F1 mice. On Day 0, mice were inoculated on one flank with 1.25×10^5 LL/2 tumor cells in 50 μl liquid carrier. Five days after inoculation with the tumor cells, mice were randomized into control and treated groups. The mice received daily treatments (0.2 ml, i.p.) for two weeks with either 10% ethanol in phosphate-buffered saline (control) or 10% ethanol in phosphate-buffered saline with BFA (treated). Each mouse in the treated group received a total dose of 0.28 mg of BFA daily.
All mice were observed daily for signs of gross toxicity and the absence or presence of tumor growth. In addition, all mice were weighed daily. […] Efficacy was determined by delay in the appearance of the tumor in the experimental group relative to control.
(§5) The efficacy of brefeldin A (BFA, 12 mg/kg) in 10% ethanol (in saline) was evaluated in B6D2F1 mice with a higher tumor cell burden than used in Example 1. […]
All mice were observed daily for signs of gross toxicity and the absence or presence of tumor growth. […] Efficacy was determined by delay in the appearance of tumor in the experimental group relative to control.

[5] = tested on: LL/2 (Lewis lung carcinoma) tumors; assay: In vivo efficacy in mice carrying LL/2 (Lewis lung carcinoma) tumors; design: species or system B6D2F1 mice
Description: as §1, §2, §4
The toxicity and efficacy of brefeldin A (BFA, 11 mg/kg) in 10% ethanol (in saline) were determined in B6D2F1 mice. On Day 0, mice were inoculated on one flank with 1.25×10^5 LL/2 tumor cells in 50 μl liquid carrier. […]
All mice were observed daily for signs of gross toxicity and the absence or presence of tumor growth. […] Efficacy was determined by delay in the appearance of the tumor in the experimental group relative to control.
as §5

[6] = Example 2, 12 mg/kg i.p. daily for two weeks, 5.0×10^5 LL/2 cells

C[C@H]1CCC/C=C/[C@@H]2C[C@H](O)C[C@H]2[C@H](O)/C=C/C(=O)O1 [brefeldin A]
inhibition of angiogenesis (microvessel growth relative to vehicle-treated control) [1]: more than 50% | inhibition of angiogenesis (complete capillary tube formation relative to untreated control) [2]: more than 50% | vessel density in tumor sections (qualitative) (RIF-1 tumors; 8 mg/kg i.v. daily for eight days): less vessel density | tumor size relative to control (FIG. 6) (RIF-1 tumors; 8 mg/kg i.v. daily for eight days in 1.0% ethanol, 2.5×10^5 RIF-1 cells): significantly smaller | tumor invasiveness on harvesting (RIF-1 tumors; 8 mg/kg i.v. daily for eight days, control tumors penetrated muscle): remained relatively localized and relatively easy to remove | gross toxicity (weight loss, hair loss, lethargy, dehydration) [3]: no gross toxicity was observed | gross toxicities (weight loss, hair loss, lethargy, dehydration) ([4]; Example 1, 11 mg/kg i.p. daily for two weeks): not observed | toxicity-related effects in brain, kidney, liver, spleen ([4]; Example 1, 11 mg/kg i.p. daily for two weeks, H&E histology): no toxicity-related effects | gross toxicity (weight loss (FIG. 4), hair loss, lethargy) ([4]; Example 2, 12 mg/kg i.p. daily for two weeks): no gross toxicity | presence of tumor (gross observation, FIG. 1) ([5]; Example 1, 11 mg/kg i.p. daily for two weeks in 10% ethanol, 1.25×10^5 LL/2 cells): no evidence of tumor was observed | tumor at inoculation site (skin sample histology, FIG. 2A) ([5]; Example 1, 11 mg/kg i.p. daily for two weeks, after final treatment): No evidence of tumor at the injection site | tumor growth delay (FIG. 3) [5, 6]: significant tumor growth delay | tumor size reduction relative to control group [5, 6]: at least 25%
